Experimental data as given in patent US8940756B2, “Dihydronaphthyridines and related compounds useful as kinase inhibitors for the treatment of proliferative diseases” (Deciphera Pharmaceuticals, Inc., priority 2012, dated 2015).

Columns and labels:
[1] = molecular target: T1, c-KIT D816V kinase (Seq ID no. 4) (Homo sapiens, UniProt P10721, D816V); assay: c-KIT D816V kinase Assay; assay type: biochemical; settings: enzymatic assay, ATP 200 uM
T1 construct: D816V c-KIT (residues T544-V976 with N-terminal GST fusion, 16 nM); purchased deCODE Biostructures
T1 sequence (P10721 544-976 D816V): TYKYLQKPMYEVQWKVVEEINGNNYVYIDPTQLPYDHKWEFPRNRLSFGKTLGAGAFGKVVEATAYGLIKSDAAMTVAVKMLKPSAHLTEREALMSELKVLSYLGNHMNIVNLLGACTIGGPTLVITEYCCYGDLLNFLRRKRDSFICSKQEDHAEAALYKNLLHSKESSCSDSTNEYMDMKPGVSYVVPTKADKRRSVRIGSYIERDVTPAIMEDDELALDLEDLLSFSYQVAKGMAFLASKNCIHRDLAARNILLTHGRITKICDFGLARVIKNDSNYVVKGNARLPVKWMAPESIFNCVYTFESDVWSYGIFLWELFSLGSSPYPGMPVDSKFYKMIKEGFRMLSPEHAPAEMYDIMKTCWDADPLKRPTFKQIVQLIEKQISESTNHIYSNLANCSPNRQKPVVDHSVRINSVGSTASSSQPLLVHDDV
Procedure: (§1) In this assay, the oxidation of NADH (measured by decrease in absorbance at 340 nm) was continuously monitored spectrophotometrically. […] The inhibition reaction was started by mixing serial diluted test compound with the above reaction mixture. The absorption at 340 nm was monitored continuously for 5 hours at 30° C. on Synergy 2 plate reader (BioTech).
The protein construct was prepared by deCODE Biostructures using procedures known in the art. The construct contains residues T544-V976 of cKit, an N-terminal tag, a GST-fusion sequence and a TEV cleavage site. This construct is identical to Seq ID no. 1 except for the D816V mutation.

[2] = molecular target: T2, c-KIT kinase (Seq ID no. 1) (Homo sapiens, UniProt P10721); assay: c-KIT Kinase Assay (pyruvate kinase/lactate dehydrogenase coupled); assay type: biochemical; settings: enzymatic assay, ATP 200 μM; read-out: KIT (wt)
T2 construct: GST (N); TEV cleavage site (N); purchased deCODE Biostructures
T2 sequence (P10721 with tags, fused parts or gaps): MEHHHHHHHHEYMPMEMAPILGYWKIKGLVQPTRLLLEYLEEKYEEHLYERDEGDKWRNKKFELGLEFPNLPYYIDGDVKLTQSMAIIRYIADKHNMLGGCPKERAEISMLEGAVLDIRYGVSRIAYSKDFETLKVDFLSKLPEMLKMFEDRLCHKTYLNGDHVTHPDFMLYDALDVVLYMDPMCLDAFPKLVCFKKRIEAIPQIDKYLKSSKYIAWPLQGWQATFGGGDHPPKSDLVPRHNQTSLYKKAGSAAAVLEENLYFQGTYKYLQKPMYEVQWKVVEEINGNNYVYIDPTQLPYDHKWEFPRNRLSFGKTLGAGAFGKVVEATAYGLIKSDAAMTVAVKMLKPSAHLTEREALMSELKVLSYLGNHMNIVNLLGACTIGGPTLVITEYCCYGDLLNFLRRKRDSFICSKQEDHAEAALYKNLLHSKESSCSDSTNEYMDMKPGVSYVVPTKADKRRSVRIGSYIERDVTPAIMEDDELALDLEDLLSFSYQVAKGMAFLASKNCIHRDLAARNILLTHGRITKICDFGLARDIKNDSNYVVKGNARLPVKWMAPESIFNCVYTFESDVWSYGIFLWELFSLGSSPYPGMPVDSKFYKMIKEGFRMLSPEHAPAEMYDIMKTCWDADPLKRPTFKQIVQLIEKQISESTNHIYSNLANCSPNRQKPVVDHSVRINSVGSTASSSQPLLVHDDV
Procedure: In this assay, the oxidation of NADH (measured by decrease in absorbance at 340 nm) was continuously monitored spectrophotometrically. […] The absorption at 340 nm was monitored continuously for 2 hours at 30° C. on Synergy 2 (BioTeK). The reaction rate was calculated using the 0 to 1 h time frame. Percent inhibition was obtained by comparison of reaction rate with that of a control (i.e. with no test compound). IC50 values were calculated from a series of percent inhibition values determined at a range of inhibitor concentrations using software routines as implemented in the GraphPad Prism software package. The protein construct was prepared by deCODE Biostructures using procedures known in the art. The construct contains […] of cKit, an N-terminal tag, a GST-fusion sequence and a TEV cleavage site.

[3] = molecular target: T3, c-KIT T670I kinase (Seq ID no. 6) (Homo sapiens, UniProt P10721, T670I); assay: c-KIT T670I Kinase Assay; assay type: biochemical; settings: enzymatic assay, ATP 200 uM
T3 construct: GST (N); TEV cleavage site (N); purchased deCODE Biostructures
T3 sequence (P10721 544-976 T670I): as the sequence (P10721 544-976 D816V) above, with T127I, V273D counted along it
Procedure: as §1, with “(BioTech). […] The protein construct was prepared by deCODE Biostructures using procedures known in the art. The construct contains […] of cKit, an N-terminal tag, a GST-fusion sequence and a TEV cleavage site. This construct is identical to Seq ID no.” for “(BioTech).”

[4] = molecular target: Phospho-KIT (Tyr719) in GIST430 cells (Homo sapiens, UniProt P10721); assay: GIST430 KIT Western Blot; assay type: cell-based; settings: 4 hours, read-out: pKIT suppression by western blot analysi GIST430
Sequence of Phospho-KIT (Tyr719) in GIST430 cells (P10721 with tags, fused parts or gaps DEL560-576/V654A, form open): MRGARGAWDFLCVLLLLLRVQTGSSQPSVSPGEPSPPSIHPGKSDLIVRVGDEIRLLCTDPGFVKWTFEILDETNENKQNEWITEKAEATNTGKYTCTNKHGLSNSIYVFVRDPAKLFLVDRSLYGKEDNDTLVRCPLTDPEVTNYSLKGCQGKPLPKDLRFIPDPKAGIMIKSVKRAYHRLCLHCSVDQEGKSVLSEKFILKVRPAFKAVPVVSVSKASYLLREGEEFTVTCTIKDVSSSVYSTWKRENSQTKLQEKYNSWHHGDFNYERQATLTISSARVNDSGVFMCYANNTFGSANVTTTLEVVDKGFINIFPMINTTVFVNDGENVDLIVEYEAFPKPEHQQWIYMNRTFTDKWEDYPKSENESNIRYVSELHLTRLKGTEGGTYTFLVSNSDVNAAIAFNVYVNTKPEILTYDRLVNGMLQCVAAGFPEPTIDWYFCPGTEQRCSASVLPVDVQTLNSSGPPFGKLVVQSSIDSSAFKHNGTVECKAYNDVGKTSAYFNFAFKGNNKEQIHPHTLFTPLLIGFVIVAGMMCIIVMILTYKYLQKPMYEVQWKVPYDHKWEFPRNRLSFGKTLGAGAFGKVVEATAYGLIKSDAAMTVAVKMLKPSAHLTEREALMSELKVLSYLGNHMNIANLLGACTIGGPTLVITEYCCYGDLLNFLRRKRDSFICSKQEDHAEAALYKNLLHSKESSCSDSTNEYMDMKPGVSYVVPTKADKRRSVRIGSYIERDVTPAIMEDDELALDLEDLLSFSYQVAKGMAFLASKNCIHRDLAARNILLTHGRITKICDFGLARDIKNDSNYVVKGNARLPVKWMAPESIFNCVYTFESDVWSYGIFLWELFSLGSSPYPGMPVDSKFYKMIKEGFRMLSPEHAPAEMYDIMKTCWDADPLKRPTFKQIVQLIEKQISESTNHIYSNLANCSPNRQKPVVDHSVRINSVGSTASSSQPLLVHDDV
Procedure: (§2) GIST48, GIST430, and GIST882 cells were obtained from J. Fletcher (Brigham and Women's Hospital, Boston, Mass.). GIST T1 cells were obtained from B. Rubin (Cleveland Clinic, Cleveland, Ohio) and Professor Takahiro Taguchi (Kochi Medical School, Nankoku, Kochi, Japan). […] GIST430 cells were grown in Ham's F10 medium supplemented with 15% characterized fetal bovine serum (Invitrogen, Carlsbad, Calif.), 30 mg/L bovine pituitary extract (BD Biosciences, San Jose, Calif.), 0.5% Mito+ serum extender (BD Biosciences, San Jose, Calif.), 1 unit/mL penicillin G, 1 μg/ml streptomycin, and 0.29 mg/mL L-glutamine at 37° C., 5% CO2, 95% humidity. GIST T1 cells were grown in DMEM medium supplemented with 10% characterized fetal bovine serum (Invitrogen, Carlsbad, Calif.), 1 unit/mL penicillin G, 1 ng/ml streptomycin, and 0.29 mg/mL L-glutamine at 37° C., 5% CO2, and 95% humidity. Cells were allowed to expand until reaching 70-95% confluence at which point they were subcultured or harvested for assay use.
(§3) One hundred fifty thousand cells were added per well in a 24-well tissue-culture treated plate. Cells were then incubated overnight at 37° C., 5% CO2, 95% humidity. Medium was aspirated, cells were washed with PBS, and serum-free Ham's F10 medium was added. A serial dilution of test compound was added to plates containing cells and plates were incubated for 4 hours at 37° C., 5% CO2, 95% humidity. Cells were washed with PBS, then lysed. Cell lysates were separated by SDS-PAGE and transferred to PVDF. Phospho-KIT (Tyr719) was detected using an antibody from Cell Signaling Technology (Beverly, Mass.), ECL Plus detection reagent (GE Healthcare, Piscataway, N.J.) and a Molecular Devices Storm 840 phosphorimager in fluorescence mode. Blots were stripped and probed for total KIT using an antibody from Santa Cruz Biotech (Santa Cruz, Calif.). IC50 values were calculated using Prism software (Graphpad, San Diego, Calif.).

[5] = molecular target: Phospho-KIT (Tyr719) in GIST48 cells (Homo sapiens, UniProt P10721); assay: GIST48 KIT Western Blot; assay type: cell-based; settings: 4 hours, read-out: pKIT suppression by western blot analysi GIST48
Sequence of Phospho-KIT (Tyr719) in GIST48 cells (P10721 whole entry V560D/D820A, form open): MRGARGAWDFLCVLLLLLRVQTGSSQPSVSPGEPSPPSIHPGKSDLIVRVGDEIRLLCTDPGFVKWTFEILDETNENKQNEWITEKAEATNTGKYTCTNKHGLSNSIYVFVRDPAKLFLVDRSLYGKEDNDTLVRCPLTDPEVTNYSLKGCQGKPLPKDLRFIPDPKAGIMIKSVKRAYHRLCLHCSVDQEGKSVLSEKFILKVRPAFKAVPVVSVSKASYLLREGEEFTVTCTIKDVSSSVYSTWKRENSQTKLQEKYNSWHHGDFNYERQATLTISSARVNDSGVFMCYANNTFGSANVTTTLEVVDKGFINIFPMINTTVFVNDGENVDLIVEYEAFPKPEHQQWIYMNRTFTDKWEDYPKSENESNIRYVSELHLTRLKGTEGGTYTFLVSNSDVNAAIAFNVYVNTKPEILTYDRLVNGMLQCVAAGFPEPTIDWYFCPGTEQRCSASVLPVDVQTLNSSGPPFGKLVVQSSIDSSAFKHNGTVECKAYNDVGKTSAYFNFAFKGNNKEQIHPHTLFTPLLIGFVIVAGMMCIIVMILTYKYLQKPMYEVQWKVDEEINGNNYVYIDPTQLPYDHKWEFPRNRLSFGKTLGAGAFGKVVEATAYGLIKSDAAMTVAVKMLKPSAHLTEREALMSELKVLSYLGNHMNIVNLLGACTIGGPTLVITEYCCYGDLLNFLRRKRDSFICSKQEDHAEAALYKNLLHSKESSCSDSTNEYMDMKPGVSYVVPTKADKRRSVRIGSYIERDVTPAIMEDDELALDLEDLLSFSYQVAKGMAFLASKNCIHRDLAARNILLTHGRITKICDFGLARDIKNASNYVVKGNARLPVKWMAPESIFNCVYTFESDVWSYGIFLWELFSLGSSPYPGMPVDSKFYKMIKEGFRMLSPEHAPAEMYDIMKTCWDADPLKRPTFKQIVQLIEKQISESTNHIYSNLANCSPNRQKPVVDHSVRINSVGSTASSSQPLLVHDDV
Procedure: as §2
as §3, with “Two” for “One”, “RPMI1640” for “Ham's F10”

SMILES	IC50 [1] [nM]	IC50 [2] [nM]	IC50 [3] [nM]	IC50 [4] [nM]	IC50 [5] [nM]
CCn1c(=O)c(-c2cc(NC(=O)Nc3ccccc3)c(F)cc2C#N)cc2cnc(NC)cc21 [Example 76, 1-(4-cyano-5-(1-ethyl-7-(methylamino)-2-oxo-1,2-dihydro-1,6-naphthyridin-3-yl)-2-fluorophenyl)-3-phenylurea]	10 to 100	< 10	100 to 1000	–	–
CCn1c(=O)c(-c2cc(NC(=O)Nc3ccccc3)c(F)cc2Cl)cc2cnc(NC(=O)N3CC(N(C)C)C3)cc21 [Example 102, N-(3-(2-chloro-4-fluoro-5-(3-phenylureido)phenyl)-1-ethyl-2-oxo-1,2-dihydro-1,6-naphthyridin-7-yl)-3-(dimethylamino)azetidine-1-carboxamide]	–	–	–	10 to 100	10 to 100
CCn1c(=O)c(-c2cc(NC(=O)Nc3ccccc3)c(F)cc2Cl)cc2cnc(NC(=O)N3CC(O)C3)cc21 [Example 81, N-(3-(2-chloro-4-fluoro-5-(3-phenylureido)phenyl)-1-ethyl-2-oxo-1,2-dihydro-1,6-naphthyridin-7-yl)-3-hydroxyazetidine-1-carboxamide]	–	–	–	10 to 100	10 to 100
CCn1c(=O)c(-c2cc(NC(=O)Nc3ccc(F)c(CN4CCN(C)CC4)c3)c(F)cc2Cl)cc2cnc(NC)cc21 [Example 87]	–	–	–	100 to 1000	10 to 100
CCn1c(=O)c(-c2cc(NC(=O)Nc3ccccc3)c(F)cc2F)cc2cnc(NC)cc21 [Example 16, 1-(5-(1-ethyl-7-(methylamino)-2-oxo-1,2-dihydro-1,6-naphthyridin-3-yl)-2,4-difluorophenyl)-3-phenylurea]	–	–	–	100 to 1000	100 to 1000
CCn1c(=O)c(-c2cc(NC(=O)Nc3csc4ccccc34)c(F)cc2C)cc2cnc(NC)cc21 [Example 59, 1-(benzo[b]thiophen-3-yl)-3-(5-(1-ethyl-7-(methylamino)-2-oxo-1,2-dihydro-1,6-naphthyridin-3-yl)-2-fluoro-4-methylphenyl)urea]	–	–	–	10 to 100	10 to 100
CCn1c(=O)c(-c2cc(NC(=O)Nc3ccccc3)c(F)cc2Cl)cc2cnc(NC(C)=O)cc21 [Example 54, 1-(5-(7-acetamido-1-ethyl-2-oxo-1,2-dihydro-1,6-naphthyridin-3-yl)-4-chloro-2-fluorophenyl)-3-phenylurea]	–	–	–	10 to 100	10 to 100
CCn1c(=O)c(-c2cc(NC(=O)Nc3ccccc3)c(F)cc2Cl)cc2cnc(NC(=O)N3CC[C@@H](N(C)C)C3)cc21 [Example 84, (R)—N-(3-(2-chloro-4-fluoro-5-(3-phenylureido)phenyl)-1-ethyl-2-oxo-1,2-dihydro-1,6-naphthyridin-7-yl)-3-(dimethylamino)pyrrolidine-1-carboxamide]	–	–	–	10 to 100	10 to 100
CCn1c(=O)c(-c2cc(NC(=O)Nc3csc4ccccc34)c(F)cc2Cl)cc2cnc(NC)cc21 [Example 32]	–	–	–	< 10	< 10
CC(=O)Nc1cc2c(cn1)cc(-c1cc(NC(=O)Nc3ccccc3)c(F)cc1Cl)c(=O)n2C(C)C [Example 86, N-(3-(2-chloro-4-fluoro-5-(3-phenylureido)phenyl)-1-isopropyl-2-oxo-1,2-dihydro-1,6-naphthyridin-7-yl)acetamide]	–	–	–	10 to 100	< 10
CCn1c(=O)c(-c2cc(NC(=O)Nc3cc(F)cc(F)c3)c(F)cc2Cl)cc2cnc(NC(C)=O)cc21 [Example 67, N-(3-(2-chloro-5-(3-(3,5-difluorophenyl)ureido)-4-fluorophenyl)-1-ethyl-2-oxo-1,2-dihydro-1,6-naphthyridin-7-yl)acetamide]	–	–	–	< 10	< 10
CCn1c(=O)c(-c2cc(NC(=O)Nc3cccc(F)c3)c(F)cc2Cl)cc2cnc(NCCOC)cc21 [Example 28, 1-(4-chloro-5-(1-ethyl-7-(2-methoxyethylamino)-2-oxo-1,2-dihydro-1,6-naphthyridin-3-yl)-2-fluorophenyl)-3-(3-fluorophenyl)urea]	–	–	–	10 to 100	100 to 1000

Continued, values first:

IC50 [1] [nM]	IC50 [2] [nM]	IC50 [3] [nM]	IC50 [4] [nM]	IC50 [5] [nM]	SMILES
10 to 100	10 to 100	100 to 1000	–	–	CCn1c(=O)c(-c2cc(NC(=O)Nc3ccccc3)c(F)cc2C)cc2cnc(Nc3ccc(C)nc3)cc21 [Example 111, 1-(5-(1-ethyl-7-((6-methylpyridin-3-yl)amino)-2-oxo-1,2-dihydro-1,6-naphthyridin-3-yl)-2-fluoro-4-methylphenyl)-3-phenylurea]
–	–	–	10 to 100	100 to 1000	CNc1cc2c(cn1)cc(-c1cc(NC(=O)Nc3cccc(F)c3)c(F)cc1C)c(=O)n2C(C)C [Example 41, 1-(2-fluoro-5-(1-isopropyl-7-(methylamino)-2-oxo-1,2-dihydro-1,6-naphthyridin-3-yl)-4-methylphenyl)-3-(3-fluorophenyl)urea]
–	–	–	10 to 100	10 to 100	CCn1c(=O)c(-c2cc(NC(=O)Nc3cccc(F)c3)c(F)cc2F)cc2cnc(NC)cc21 [Example 15, 1-(5-(1-ethyl-7-(methylamino)-2-oxo-1,2-dihydro-1,6-naphthyridin-3-yl)-2,4-difluorophenyl)-3-(3-fluorophenyl)urea]
–	–	–	10 to 100	10 to 100	CCn1c(=O)c(-c2cc(NC(=O)Nc3ccccc3F)c(F)cc2Cl)cc2cnc(NC)cc21 [Example 25, 1-[4-chloro-5-(1-ethyl-7-methylamino-2-oxo-1,2-dihydro-[1,6]naphthyridin-3-yl)-2-fluoro-phenyl]-3-(2-fluoro-phenyl)-urea]
–	–	–	< 10	10 to 100	CCn1c(=O)c(-c2cc(NC(=O)Nc3ccccc3)c(F)cc2Cl)cc2cnc(NC(=O)N(C)C)cc21 [Example 70, 3-(3-(2-chloro-4-fluoro-5-(3-phenylureido)phenyl)-1-ethyl-2-oxo-1,2-dihydro-1,6-naphthyridin-7-yl)-1,1-dimethylurea]
–	–	–	10 to 100	10 to 100	CCn1c(=O)c(-c2cc(NC(=O)Nc3ccccc3)c(F)cc2Cl)cc2cnc(NCCOC)cc21 [Example 27, 1-(4-chloro-5-(1-ethyl-7-(2-methoxyethylamino)-2-oxo-1,2-dihydro-1,6-naphthyridin-3-yl)-2-fluorophenyl)-3-phenylurea]
